Laboratory results: patent publication US10202604B2, “Methods of using microRNA-141” (Stemirna Therapeutics Co., Ltd., priority 2016, dated 2019)

Experiments:
[1] = test system: cultured as well as primary patient human prostate cancer cells; test: Matrigel invasion assay; format: cell-based
Procedure: (§1) For Boyden Chamber invasion assays, Biocoat Matrigel Invasion Chamber (BD, Franklin Lakes, N.J.) was employed following the manufacturer's instructions. Briefly, 100,000-200,000 of prostate cancer cells after transfection with […]/miR-141 oligos or infection with miR-141 over-expressing lentivirus were seeded into each well. Medium with 20% fetal bovine serum was used in the lower chamber as chemo-attractant. After 20 h, cells were fixed and stained using HEMA stain. Representative images were taken for each membrane and cells were counted. Migration assays were simultaneously performed in control wells using identical protocol with Transwell (Costar; […]) without Matrigel. In some experiments, Du145 cells were plated one day before and treated with 1, 2, and 5 μM of DZNep (3-Deazaneplanocin A) for 96 h after which cells were harvested and used in invasion assays and Western blot.

[2] = test system: Human CDC42 3'-UTR; test: 3'-UTR luciferase reporter assay; format: cell-based; settings: Du145 cells; 30 nM miR-141 vs NC oligos
Procedure: (§2) Du145 cells transfected with NC or miR-141 oligos at the two doses and time intervals indicated were used in Western blotting. Indicated below are relative expression levels (normalized to respective GAPDH and compared to NC) of each protein determined by densitometric scanning of the individual bands. […] Bars, mean±SD. *P<0.05; **P<0.01. […] Du145 cells were co-transfected with NC or miR-141 oligos (30 nM) in combination with pcDNA3.1 (control) vector or pcDNA-RAC1 or pcDNA-CDC42 expression vector. After 48 h, cells were harvested for invasion assays. […] Du145 cells were infected with Lenti-141 or control lentivirus (MOI 10, 48 h) and then harvested to measure the Rho GTPase activities. Bars, mean±SD. *P<0.05. […] Du145 cells were transfected with the antisense oligos to NC or miR-141 (anti-141; 30 nM) and then used in invasion assays (FIG. 5E). In FIG. 5F and FIG. 5G Du145 cells were transfected with 10 nM of scramble siRNA control (siCon) or siRNAs targeting RAC1 (FIG. 5F) or CDC42 (FIG. 5G), either alone or in combination of anti-141 (30 nM). 48 h later, cells were harvested for invasion assays. Bars, mean±SD. *P<0.05; **P<0.01.
(§3) The human CD44 3′-UTR was amplified from Du145 genomic DNA using primers 5′-[…]-3′ (SEQ ID NO: 2) and 5′-[…]-3′ (SEQ ID NO: 3), as previously described (13). For site-specific mutagenesis, the region in the CD44 3′-UTR (SEQ ID NO: 4, shown with uracils) complementary to the seed sequence of miR-141 (SEQ ID NO: 1) were mutated (TAGTGTT to GGCGCGG; see FIG. 3D). The human EZH2 3′-UTR was amplified from Du145 genomic DNA using primers 5′-GAGCTC-CATCTGCTACCTCCTCCCC-3′ (SEQ ID NO: 6) and 5′-[…]-3′ (SEQ ID NO: 7). For site-specific mutagenesis, the region complementary to the seed sequence of miR-141 was mutated (AAAGTGTT to TATCACAA; see FIG. 6A). The PCR fragments were cloned into pGEM-T vector (Promega, Madison, Wis.) and sequence confirmed. Cells were plated in 24-well plates and co-transfected, using Lipofectamine 2000, with 1 μg firefly luciferase reporter plasmid and 5 ng Renilla plasmid (phRL-CMV) into which the 3′-UTR fragments were cloned. The luciferase activities were detected using Duo-luciferase reporter assay system (Promega). Human RAC1, CDC42, CDC42EP3, and ARPC5 3′-UTR luciferase reporter constructs were obtained from SwitchGear Genomics (Menlo Park, Calif.) and luciferase activities were measured per the manufacturer's instructions using LightSwitch luciferase assay kit.

[3] = test system: Human CDC42EP3 3'-UTR; test: 3'-UTR luciferase reporter assay; format: cell-based; settings: Du145 cells; 30 nM miR-141 vs NC oligos
Procedure: as §2, §3

[4] = test system: human EZH2 3'-UTR; test: EZH2 3'-UTR luciferase reporter assay; format: cell-based; settings: Du145 cells
Procedure: FIG. 6A: Putative binding site of miR-141 in EZH2 3′-UTR. […] FIG. 6C is a qPCR analysis of EZH2 mRNA levels in CD44^+ PCa cells. Bars, mean±SD. *P<0.05; **P<0.01. […] Bars, mean±SD. **P<0.01. […] Western blotting was performed in PC3 and Du145 cells transfected with NC (60 nM) or miR-141 (30 or 60 nM) oligos (72 h). Relative protein levels were measured by densitometry and normalized to GAPDH levels (indicated below). […] Du145 cells plated one day before were treated with 1, 2, and 5 μM of DZNep for 96 h and then cells were harvested for invasion assays. **P<0.01. Inset, WB showing reduced EZH2 proteins by DZNep. […] Du145 cells were transfected with 10 nM scramble siRNA (siCon) or EZH2-targeting siRNAs (siEZH2) or siEZH2 plus anti-miR-141 (30 nM). 48 h later, cells were harvested for invasion assays. Bars, mean±SD. **P<0.01. […]
The human CD44 3′-UTR was amplified from Du145 genomic DNA using primers 5′-[…]-3′ (SEQ ID NO: 2) and 5′-[…]-3′ (SEQ ID NO: 3), as previously described (13). […] The luciferase activities were detected using Duo-luciferase reporter assay system (Promega). Human RAC1, CDC42, CDC42EP3, and ARPC5 3′-UTR luciferase reporter constructs were obtained from SwitchGear Genomics (Menlo Park, Calif.) and luciferase activities were measured per the manufacturer's instructions using LightSwitch luciferase assay kit.

[5] = test system: EZH2; test: EZH2 mRNA and protein levels; format: cell-based, human
Procedure: FIG. 6A: Putative binding site of miR-141 in EZH2 3′-UTR. […] FIG. 6C is a qPCR analysis of EZH2 mRNA levels in CD44^+ PCa cells. Bars, mean±SD. *P<0.05; **P<0.01. […] Bars, mean±SD. **P<0.01. […] Western blotting was performed in PC3 and Du145 cells transfected with NC (60 nM) or miR-141 (30 or 60 nM) oligos (72 h). Relative protein levels were measured by densitometry and normalized to GAPDH levels (indicated below). […] Du145 cells plated one day before were treated with 1, 2, and 5 μM of DZNep for 96 h and then cells were harvested for invasion assays. **P<0.01. Inset, WB showing reduced EZH2 proteins by DZNep. […] Du145 cells were transfected with 10 nM scramble siRNA (siCon) or EZH2-targeting siRNAs (siEZH2) or siEZH2 plus anti-miR-141 (30 nM). 48 h later, cells were harvested for invasion assays. Bars, mean±SD. **P<0.01. […] Du145 cells were co-transfected with 30 nM NC or miR-141 oligos together with empty vector or pCMV-EZH2 construct. After 48 h, cells were harvested for invasion assay. Bars, mean±SD. **P<0.01.
Total RNA was extracted using microRNA isolation kit (Life Technologies) according to the manufacturer's instructions. microRNA qPCRs were performed using TaqMan microRNA assays (Life Technologies). qPCR data for microRNAs were normalized to RNU48 whereas qPCR data for mRNAs were normalized to GAPDH.
as §1, with “In some experiments, Du145 cells were plated one day before and treated with 1, 2, and 5 μM of DZNep (3-Deazaneplanocin A) for 96 h after which cells were harvested and used in invasion assays and Western blot.” left out

## miR-141: miR-141 mirVana mimics (Life Technologies); microRNA-141 oligonucleotide may have SEQ ID NO: 1; in some experiments over-expressed by lentiviral vectors (UAACACUGUCUGGUAAAGAUGG; listed as RNA, further chemistry not given here) [miR-141 mirVana mimics (Life Technologies); in some experiments over-expressed by lentiviral vectors]
[1]
  invasive capabilities: significantly inhibited
[2]
  luciferase activity of CDC42 3'-UTR construct: inhibited
[3]
  luciferase activity of CDC42EP3 3'-UTR construct: inhibited
[4]
  luciferase activity, WT EZH2 3'-UTR: suppressed
  luciferase activity, mutated EZH2 3'-UTR: not
[5]; miR-141 overexpression in prostate cancer cells
  EZH2 RNA level: significantly reduced
[5]; miR-141 overexpression, PC3 and Du145, 30 or 60 nM, 72 h
  EZH2 protein level: significantly reduced
